Key:
human spermatozoa = test: Cytotoxicity of bound cholesterol on semen in culture (motility evaluations); type: cell-based; settings: culture plates coated with 100 µl sterol solution; 1, 2, 4 and 8 hours of incubation
Experimental: In this experiment, liquefied semen samples were exposed to culture plates that had been coated with 100 µl of the sterol solution.

human red blood cells = settings: 3.3M (30%) glycerol; over a 2-3 log range in cooling rates; cited from earlier work

With CC(C)CCC[C@@H](C)[C@H]1CC[C@H]2[C@@H]3CC=C4C[C@@H](O)CC[C@]4(C)[C@H]3CC[C@]12C [bound cholesterol, cholesterol] the “cytotoxic effect (motility evaluations)” value (human spermatozoa) was “no significant cytotoxic effect”.

In the case of OCC(O)CO [glycerol], the survival (human red blood cells) is given as “around 90%”.
